{
  "source": "paper PMC8967716",
  "about": "“Inhibition of calcium-triggered secretion by hydrocarbon-stapled peptides” (Nature, 2022)",
  "target": "T1, neuronal SNAREs and Syt1(QM) (Rattus norvegicus, UniProt P21707, E295A/R281A/R398A/R399A/Y338W)",
  "T1 construct": "made in house",
  "T1 sequence (P21707 whole entry R281A/E295A/Y338W/R398A/R399A)": "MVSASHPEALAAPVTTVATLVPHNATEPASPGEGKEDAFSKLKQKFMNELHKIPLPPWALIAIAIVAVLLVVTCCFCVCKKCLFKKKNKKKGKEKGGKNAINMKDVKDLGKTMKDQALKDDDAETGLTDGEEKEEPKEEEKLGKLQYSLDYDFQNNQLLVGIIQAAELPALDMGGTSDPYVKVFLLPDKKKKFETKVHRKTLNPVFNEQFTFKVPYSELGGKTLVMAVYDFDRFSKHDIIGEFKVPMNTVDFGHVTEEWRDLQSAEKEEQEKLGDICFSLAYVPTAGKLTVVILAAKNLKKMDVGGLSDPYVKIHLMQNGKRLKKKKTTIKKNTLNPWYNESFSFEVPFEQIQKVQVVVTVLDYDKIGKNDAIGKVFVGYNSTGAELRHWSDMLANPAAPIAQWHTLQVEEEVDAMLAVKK",
  "experiment": "Single-vesicle content mixing assay, neuronal SNAREs and Syt1(QM)",
  "format": "biochemical",
  "key": {"[1]": {"conditions": "10 μM SP9, each value one repeat experiment"}, "[2]": {"conditions": "500 μM Ca2+, 10 μM SP9, each value one repeat experiment"}},
  "note": "Several values for one entry are separate records, joined by “and”; a condition that tells them apart may be missing. Identical values can stand only once. Positions of bridges follow the written chain, without caps; N, C: chain ends. Non-standard residues stand in square brackets, D forms with d. Residues, ends and D or L forms follow the SMILES beside them. S5 = C=CCCC[C@](C)(N)C(=O)O",
  "data": [
    {"smiles": "CC[C@H](C)[C@H](NC(=O)[C@]1(C)CCCC=CCCC[C@](C)(NC(=O)[C@H](CCC(=O)O)NC(=O)[C@H](CCC(=O)O)NC(C)=O)C(=O)N[C@@H](CCCCN)C(=O)N[C@@H](CC(=O)O)C(=O)N[C@@H](C)C(=O)N1)C(=O)N[C@@H](CCCNC(=N)N)C(=O)N[C@@]1(C)CCCC=CCCC[C@@](C)(C(=O)N[C@@H](CC(=O)O)C(=O)N[C@@H](CCC(=O)O)C(=O)N[C@@H](CCC(N)=O)C(=O)N[C@@H](CS)C(N)=O)NC(=O)[C@H](CCSC)NC(=O)[C@H](C(C)C)NC(=O)[C@H](CC(C)C)NC1=O", "note": "[SP9] (Ac-EE[S5]KDA[S5]IR[S5]LVM[S5]DEQC-NH2; staple 3-7, 10-14)", "values": [
      {"measurement": "Ca2+ independent fusion per sec (average probability)", "setting": "[1]", "value": "0.0007051 and 0.0008431 and 0.0008917"},
      {"measurement": "Vesicle association", "setting": "[1]", "value": "67 and 40 and 70"},
      {"measurement": "Ca2+ triggered fusion accumulative probability (within 1 min)", "setting": "[2]", "value": "0.0513 and 0.04654 and 0.06303"},
      {"measurement": "Ca2+ triggered fusion amplitude (first 1-sec time bin)", "setting": "[2]", "value": "0.004413 and 0.005288 and 0.004669"},
      {"measurement": "effect on Ca2+-independent or Ca2+-triggered fusion with Syt1(QM)", "setting": "SP9 vs no peptide", "value": "little effect"}
    ]}
  ]
}
